From PubChem BioAssay (NCI) come the findings set out here.

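48-hour exposure; five concentrations; linearly interpolated endpoints. GI50 marks 50% less growth. TGI: total growth inhibition.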 A value given as a limit tells only on which side of the number the result lay.

Among the test systems are KM12 colon; SW-620 colon; ACHN renal; SN12C renal; RPMI-8226 leukemia; 786-0 renal; PC-3 prostate; HOP-62 NSCLC; LOX IMVI melanoma; UACC-62 melanoma.
Test in all cases: NCI tumour cell line growth inhibition, 48 h

With `CNC(=O)Oc1cc(C(C)C)ccc1Sc1ccc(C(C)C)cc1OC(=O)NC`, the GI50 was 5.78 µM with KM12 colon; 5.01 µM with SW-620 colon; 6.92 µM in the test on ACHN renal; 7 µM in the test on SN12C renal; 1.83 µM in the test on RPMI-8226 leukemia; 11.5 µM in the test with 786-0 renal. The GI50 in the test on PC-3 prostate is 2.97 µM; in the test on HOP-62 NSCLC it was 9.56 µM; with LOX IMVI melanoma, 6.09 µM; with UACC-62 melanoma, 4.24 µM. In addition, the TGI was 18.9 µM in the test with KM12 colon; 20.1 µM in the test on SW-620 colon; 24.4 µM with ACHN renal; 24 µM in the test with SN12C renal; 7.48 µM with RPMI-8226 leukemia; 28.7 µM with 786-0 renal. For the same molecule, the TGI with PC-3 prostate stood at 16.9 µM; in the test on HOP-62 NSCLC, 22.6 µM; in the test with LOX IMVI melanoma, 27.6 µM; in the test on UACC-62 melanoma, 16.5 µM.
Take `O=C(N/N=C/c1ccc(Cl)cc1)c1ccc(NC(=O)c2ccccn2)cc1`: the GI50 in the test with KM12 colon is 31 µM; in the test on SW-620 colon it was 59 µM; with ACHN renal, 19.1 µM; in the test with SN12C renal it was 18.9 µM; with RPMI-8226 leukemia it was above 100 µM; with 786-0 renal, 20.7 µM. The GI50 is 17 µM with PC-3 prostate, 18.2 µM in the test with HOP-62 NSCLC, 56.1 µM in the test on LOX IMVI melanoma and 24.5 µM in the test on UACC-62 melanoma. Moreover, the TGI in the test on KM12 colon is above 100 µM; in the test on SW-620 colon, above 100 µM; in the test with ACHN renal it was 59.3 µM; with SN12C renal, 55.4 µM; with RPMI-8226 leukemia, above 100 µM; with 786-0 renal it was 59.6 µM. The TGI is above 100 µM in the test on PC-3 prostate, 91.3 µM in the test with HOP-62 NSCLC, above 100 µM with LOX IMVI melanoma and above 100 µM in the test with UACC-62 melanoma.
In the case of `COc1cc2cc(NCc3cccc(Cl)c3)nc(C)c2cc1OC`, the GI50 was 2.62 µM in the test with KM12 colon; 1.93 µM in the test on SW-620 colon; 2.46 µM with ACHN renal; 2.21 µM with SN12C renal; 0.539 µM in the test with RPMI-8226 leukemia; 1.7 µM in the test on 786-0 renal. Further, the GI50 was 3.14 µM with PC-3 prostate, 0.862 µM in the test on HOP-62 NSCLC, 0.442 µM with LOX IMVI melanoma and 0.498 µM in the test with UACC-62 melanoma. The TGI was determined as 15.8 µM in the test with KM12 colon; 12.6 µM in the test on SW-620 colon; 23.1 µM in the test on ACHN renal; 17.4 µM with SN12C renal; 23.4 µM with RPMI-8226 leukemia; 20.4 µM in the test with 786-0 renal. The TGI was 23.7 µM in the test with PC-3 prostate, 22.2 µM with HOP-62 NSCLC, 4.36 µM with LOX IMVI melanoma and 5.41 µM in the test with UACC-62 melanoma.
Regarding `O=C(/C=C\c1ccc(O)c(O)c1)c1ccccc1O`, the GI50 was 11.8 µM in the test on KM12 colon; 11.3 µM in the test on SW-620 colon; 8.31 µM in the test on ACHN renal; 11.8 µM with SN12C renal; 0.578 µM with RPMI-8226 leukemia; 10.6 µM in the test on 786-0 renal. Further, the GI50 was 13.4 µM in the test with PC-3 prostate, 12.6 µM in the test with HOP-62 NSCLC, 11 µM in the test on LOX IMVI melanoma and 12.1 µM in the test on UACC-62 melanoma. The TGI amounted to 27.6 µM in the test on KM12 colon; 26.4 µM in the test on SW-620 colon; 24 µM in the test on ACHN renal; 37.5 µM in the test with SN12C renal; 29.6 µM with RPMI-8226 leukemia; 23.3 µM in the test with 786-0 renal. The TGI in the test with PC-3 prostate is 89.8 µM; in the test with HOP-62 NSCLC it was 50.8 µM; with LOX IMVI melanoma, 23.1 µM; in the test with UACC-62 melanoma, 26.1 µM.
Turning to `COc1ccc(-c2nc3sc(-c4cc(OC)c(OC)c(OC)c4)nn3c2/C=C2/C(=O)Nc3ccc(F)cc32)cc1`, the GI50 in the test with KM12 colon is 4.04 µM; with SW-620 colon, 3.22 µM; in the test with ACHN renal, 3.29 µM; in the test with SN12C renal, 14.2 µM; with RPMI-8226 leukemia it was 11.3 µM; in the test on 786-0 renal, 16 µM. Besides, the GI50 is 24.7 µM in the test with PC-3 prostate, 1.94 µM with HOP-62 NSCLC, 6.88 µM in the test with LOX IMVI melanoma and 13.3 µM in the test on UACC-62 melanoma. Further, the TGI is 15.7 µM with KM12 colon; 14.8 µM in the test with SW-620 colon; 15.3 µM in the test with ACHN renal; 40.1 µM in the test on SN12C renal; 64.6 µM in the test with RPMI-8226 leukemia; 32.7 µM in the test on 786-0 renal. For the same molecule, the TGI is 65.3 µM with PC-3 prostate, 4.74 µM in the test with HOP-62 NSCLC, 37.6 µM in the test on LOX IMVI melanoma and 33.4 µM with UACC-62 melanoma.
Turning to `Cc1cc(I)cc(CNCCN(C)C)c1O`, the GI50 was above 100 µM in the test on KM12 colon; above 100 µM in the test with SW-620 colon; above 79.6 µM in the test on ACHN renal; above 85.6 µM with SN12C renal; 35.2 µM with RPMI-8226 leukemia; above 92.2 µM in the test with 786-0 renal. The GI50 in the test on PC-3 prostate was above 84 µM; with HOP-62 NSCLC, above 100 µM; in the test on LOX IMVI melanoma, 44.3 µM; in the test with UACC-62 melanoma, 19.7 µM. Besides, the TGI in the test on KM12 colon, in the test on SW-620 colon, in the test on ACHN renal, in the test with SN12C renal, in the test on RPMI-8226 leukemia and in the test with 786-0 renal was above 100 µM throughout. The TGI in the test with PC-3 prostate is above 100 µM; with HOP-62 NSCLC it was above 100 µM; in the test on LOX IMVI melanoma it was above 100 µM; with UACC-62 melanoma, 39.2 µM.
